Laboratory results as given in PubChem BioAssay AID1963428 (Molecular Pharmacology Branch, DTP, NCI, 2024).

Test system: 171881-019-R-J1-PDC complex spheroid growth, % test/control
Test: Anticancer human tumor 171881-019-R-J1-PDC patient-derived invasive breast carcinoma cell line growth inhibition [Asc]
Details: for IC50: curve of first compound; for viability, T/C: stronger effect = lower value
Outline: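 Spheroid model: tumor line + HUVEC + hMSC. Single agents and combinations; top conc. at/near clinical Cmax (10 microM if undetermined), half-log dilutions. DMSO stocks at 800-fold test concentration.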

[1] = second compound 0.01 µM, first compound 0.00949 µM
[2] = second compound 0.01 µM, first compound 0.03 µM
[3] = second compound 0.01 µM, first compound 0.0949 µM
[4] = second compound 0.01 µM, first compound 0.3 µM
[5] = second compound 0.01 µM, first compound 0.949 µM
[6] = second compound 0.01 µM, first compound 3 µM
[7] = second compound 0.0316 µM, first compound 0.00949 µM
[8] = second compound 0.0316 µM, first compound 0.03 µM
[9] = second compound 0.0316 µM, first compound 0.0949 µM
[10] = second compound 0.0316 µM, first compound 0.3 µM
[11] = second compound 0.0316 µM, first compound 0.949 µM
[12] = second compound 0.0316 µM, first compound 3 µM
[13] = second compound 0.1 µM, first compound 0.00949 µM
[14] = second compound 0.1 µM, first compound 0.03 µM
[15] = second compound 0.1 µM, first compound 0.0949 µM
[16] = second compound 0.1 µM, first compound 0.3 µM
[17] = second compound 0.1 µM, first compound 0.949 µM
[18] = second compound 0.1 µM, first compound 3 µM
[19] = second compound 0.316 µM, first compound 0.00949 µM
[20] = second compound 0.316 µM, first compound 0.03 µM
[21] = second compound 0.316 µM, first compound 0.0949 µM
[22] = second compound 0.316 µM, first compound 0.3 µM
[23] = second compound 0.316 µM, first compound 0.949 µM
[24] = second compound 0.316 µM, first compound 3 µM
[25] = second compound 1 µM, first compound 0.00949 µM
[26] = second compound 1 µM, first compound 0.03 µM
[27] = second compound 1 µM, first compound 0.0949 µM
[28] = second compound 1 µM, first compound 0.3 µM
[29] = second compound 1 µM, first compound 0.949 µM
[30] = second compound 1 µM, first compound 3 µM
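For viability, T/C in this document: spheroids exposed to compounds for 7 days.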

In the case of `C=CC(=O)N1CCN(c2nc(=O)n(-c3c(C)ccnc3C(C)C)c3nc(-c4c(O)cccc4F)c(F)cc23)C(C)C1` (stereo not given) + CNC(C)C(=O)NC1CN(S(=O)(=O)c2cccc(S(=O)(=O)N3CCC4CCC(C(=O)NC(c5ccccc5)c5ccccc5)N4C(=O)C(NC(=O)C(C)NC)C3)c2)CCC2CCC(C(=O)NC(c3ccccc3)c3ccccc3)N2C1=O, the IC50 (second compound 0.01 µM) is reported as greater than 10 µM, the IC50 (second compound 0.0316 µM) is reported as greater than 10 µM and the IC50 (second compound 0.1 µM) is reported as greater than 10 µM. For the same compound, the IC50 (second compound 0.316 µM) was greater than 10 µM, the IC50 (second compound 1 µM) was greater than 10 µM and the viability, T/C (second compound 0.01 µM, first compound 0.0316 µM) was 105%. It also gave a viability, T/C (second compound 0.01 µM, first compound 0.1 µM) of 94.4%, a viability, T/C (second compound 0.01 µM, first compound 0.316 µM) of 84.8% and a viability, T/C (second compound 0.01 µM, first compound 1 µM) of 96%. It also gave a viability, T/C (second compound 0.01 µM, first compound 3.16 µM) of 95.7%, a viability, T/C (second compound 0.01 µM, first compound 10 µM) of 85.8% and a viability, T/C (second compound 0.0316 µM, first compound 0.0316 µM) of 110%. It also gave a viability, T/C (second compound 0.0316 µM, first compound 0.1 µM) of 97.7%, a viability, T/C (second compound 0.0316 µM, first compound 0.316 µM) of 97.8% and a viability, T/C (second compound 0.0316 µM, first compound 1 µM) of 85.7%. For the same compound, the viability, T/C (second compound 0.0316 µM, first compound 3.16 µM) was 85.2%, the viability, T/C (second compound 0.0316 µM, first compound 10 µM) was 80.3% and the viability, T/C (second compound 0.1 µM, first compound 0.0316 µM) was 99.2%. For the same compound, the viability, T/C (second compound 0.1 µM, first compound 0.1 µM) was 92.4%, the viability, T/C (second compound 0.1 µM, first compound 0.316 µM) was 95.9% and the viability, T/C (second compound 0.1 µM, first compound 1 µM) was 98.6%. It also gave a viability, T/C (second compound 0.1 µM, first compound 3.16 µM) of 96%, a viability, T/C (second compound 0.1 µM, first compound 10 µM) of 96.2% and a viability, T/C (second compound 0.316 µM, first compound 0.0316 µM) of 95.1%. The viability, T/C (second compound 0.316 µM, first compound 0.1 µM) was 95.3%, the viability, T/C (second compound 0.316 µM, first compound 0.316 µM) was 103% and the viability, T/C (second compound 0.316 µM, first compound 1 µM) was 107%. The viability, T/C (second compound 0.316 µM, first compound 3.16 µM) was 94%, the viability, T/C (second compound 0.316 µM, first compound 10 µM) was 86.8% and the viability, T/C (second compound 1 µM, first compound 0.0316 µM) was 110%. The viability, T/C (second compound 1 µM, first compound 0.1 µM) was 110%, the viability, T/C (second compound 1 µM, first compound 0.316 µM) was 86% and the viability, T/C (second compound 1 µM, first compound 1 µM) was 96.6%. It also gave a viability, T/C (second compound 1 µM, first compound 3.16 µM) of 96.2% and a viability, T/C (second compound 1 µM, first compound 10 µM) of 96.8%.
`CCN1C(C(=O)NC23CCC(C(=O)O)(CC2)CC3)C(c2cccc(Cl)c2F)C2(C(=O)Nc3cc(Cl)ccc32)C12CCCCC2` (stereo not given) + CNC(C)C(=O)NC1CN(S(=O)(=O)c2cccc(S(=O)(=O)N3CCC4CCC(C(=O)NC(c5ccccc5)c5ccccc5)N4C(=O)C(NC(=O)C(C)NC)C3)c2)CCC2CCC(C(=O)NC(c3ccccc3)c3ccccc3)N2C1=O was tested, and the IC50 (second compound 0.01 µM) was greater than 3 µM, the IC50 (second compound 0.0316 µM) was greater than 3 µM and the IC50 (second compound 0.1 µM) was greater than 3 µM. It also gave an IC50 (second compound 0.316 µM) greater than 3 µM, an IC50 (second compound 1 µM) greater than 3 µM and a viability, T/C [1] of 91%. It also gave a viability, T/C [2] of 108%, a viability, T/C [3] of 117% and a viability, T/C [4] of 109%. For the same compound, the viability, T/C [5] was 110%, the viability, T/C [6] was 138% and the viability, T/C [7] was 109%. The viability, T/C [8] was 118%, the viability, T/C [9] was 104% and the viability, T/C [10] was 112%. The viability, T/C [11] was 105%, the viability, T/C [12] was 138% and the viability, T/C [13] was 130%. For the same compound, the viability, T/C [14] was 117%, the viability, T/C [15] was 104% and the viability, T/C [16] was 111%. The viability, T/C [17] was 117%, the viability, T/C [18] was 132% and the viability, T/C [19] was 110%. The viability, T/C [20] was 120%, the viability, T/C [21] was 91.2% and the viability, T/C [22] was 123%. It also gave a viability, T/C [23] of 99%, a viability, T/C [24] of 132% and a viability, T/C [25] of 102%. For the same compound, the viability, T/C [26] was 110%, the viability, T/C [27] was 112% and the viability, T/C [28] was 101%. It also gave a viability, T/C [29] of 121% and a viability, T/C [30] of 132%.
`Cc1nc(N2CCC3(CC2)COC(C)C3N)c(CO)nc1Sc1ccnc(N)c1Cl` (stereo not given) + CNC(C)C(=O)NC1CN(S(=O)(=O)c2cccc(S(=O)(=O)N3CCC4CCC(C(=O)NC(c5ccccc5)c5ccccc5)N4C(=O)C(NC(=O)C(C)NC)C3)c2)CCC2CCC(C(=O)NC(c3ccccc3)c3ccccc3)N2C1=O gave an IC50 (second compound 0.01 µM) greater than 3 µM, an IC50 (second compound 0.0316 µM) greater than 3 µM and an IC50 (second compound 0.1 µM) greater than 3 µM. For the same compound, the IC50 (second compound 0.316 µM) was greater than 3 µM, the IC50 (second compound 1 µM) was greater than 3 µM and the viability, T/C [1] was 119%. For the same compound, the viability, T/C [2] was 132%, the viability, T/C [3] was 192% and the viability, T/C [4] was 239%. For the same compound, the viability, T/C [5] was 205%, the viability, T/C [6] was 165% and the viability, T/C [7] was 116%. For the same compound, the viability, T/C [8] was 163%, the viability, T/C [9] was 214% and the viability, T/C [10] was 279%. The viability, T/C [11] was 211%, the viability, T/C [12] was 164% and the viability, T/C [13] was 120%. For the same compound, the viability, T/C [14] was 147%, the viability, T/C [15] was 196% and the viability, T/C [16] was 237%. For the same compound, the viability, T/C [17] was 175%, the viability, T/C [18] was 155% and the viability, T/C [19] was 111%. It also gave a viability, T/C [20] of 140%, a viability, T/C [21] of 203% and a viability, T/C [22] of 229%. The viability, T/C [23] was 181%, the viability, T/C [24] was 147% and the viability, T/C [25] was 119%. For the same compound, the viability, T/C [26] was 148%, the viability, T/C [27] was 183% and the viability, T/C [28] was 250%. The viability, T/C [29] was 171% and the viability, T/C [30] was 142%.
